In ChEMBL document CHEMBL1140398, “New dual inhibitors of EGFR and HER2 protein tyrosine kinases” (Bioorg Med Chem Lett, 2005):

Assays:
[1] = biological target: Receptor tyrosine-protein kinase erbB-2 (Homo sapiens, UniProt P04626); assay: In vitro inhibitory concentration against HER2 cytoplasmic sequence expressed in Sf9 cells
[2] = biological target: Epidermal growth factor receptor (Homo sapiens, UniProt P00533); assay: In vitro inhibitory concentration against EGFR cytoplasmic sequence expressed in Sf9 cells
Sequence of Epidermal growth factor receptor (P00533 whole entry): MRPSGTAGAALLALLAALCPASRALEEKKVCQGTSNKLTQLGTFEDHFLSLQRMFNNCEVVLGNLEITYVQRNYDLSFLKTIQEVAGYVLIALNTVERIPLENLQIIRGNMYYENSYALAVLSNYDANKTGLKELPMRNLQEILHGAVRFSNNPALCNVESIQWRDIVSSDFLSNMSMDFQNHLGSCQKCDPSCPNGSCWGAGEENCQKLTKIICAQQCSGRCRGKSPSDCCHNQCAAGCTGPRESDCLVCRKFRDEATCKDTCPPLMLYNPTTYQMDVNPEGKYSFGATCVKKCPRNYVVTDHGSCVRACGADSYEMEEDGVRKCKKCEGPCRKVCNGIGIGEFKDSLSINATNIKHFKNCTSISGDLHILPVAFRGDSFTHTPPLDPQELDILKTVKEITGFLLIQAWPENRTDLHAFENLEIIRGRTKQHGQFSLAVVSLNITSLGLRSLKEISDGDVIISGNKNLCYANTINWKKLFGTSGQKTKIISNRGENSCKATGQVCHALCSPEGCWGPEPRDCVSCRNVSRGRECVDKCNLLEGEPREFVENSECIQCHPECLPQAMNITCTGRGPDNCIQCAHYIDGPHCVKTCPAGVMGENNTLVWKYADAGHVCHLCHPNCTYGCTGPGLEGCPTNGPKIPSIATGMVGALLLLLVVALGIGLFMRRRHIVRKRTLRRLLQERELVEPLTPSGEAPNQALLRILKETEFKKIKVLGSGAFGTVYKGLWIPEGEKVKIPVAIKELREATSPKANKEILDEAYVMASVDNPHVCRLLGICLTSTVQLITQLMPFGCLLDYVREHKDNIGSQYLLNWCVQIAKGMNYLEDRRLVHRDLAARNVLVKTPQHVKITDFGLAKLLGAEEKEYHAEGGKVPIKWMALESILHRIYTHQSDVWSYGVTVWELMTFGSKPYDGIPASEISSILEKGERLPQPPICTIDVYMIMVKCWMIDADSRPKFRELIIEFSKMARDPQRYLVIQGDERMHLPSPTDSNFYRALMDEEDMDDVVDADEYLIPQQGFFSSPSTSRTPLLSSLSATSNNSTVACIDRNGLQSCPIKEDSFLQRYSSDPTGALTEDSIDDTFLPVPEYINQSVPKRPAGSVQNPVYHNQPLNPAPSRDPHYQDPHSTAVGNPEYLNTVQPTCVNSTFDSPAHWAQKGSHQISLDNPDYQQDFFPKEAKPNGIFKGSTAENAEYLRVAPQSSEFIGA

[3] = biological target: MAP kinase-activated protein kinase 2 (Homo sapiens, UniProt P49137); assay: Inhibitory concentration against MAPKAP kinase 2 cytoplasmic sequence; Reported as mean (variability <15%)
Focal adhesion kinase 1 = Focal adhesion kinase 1 (Homo sapiens, UniProt Q05397); assay: Inhibitory concentration against FAK cytoplasmic sequence; Reported as mean (variability <15%)
Sequence of Focal adhesion kinase 1 (Q05397 whole entry): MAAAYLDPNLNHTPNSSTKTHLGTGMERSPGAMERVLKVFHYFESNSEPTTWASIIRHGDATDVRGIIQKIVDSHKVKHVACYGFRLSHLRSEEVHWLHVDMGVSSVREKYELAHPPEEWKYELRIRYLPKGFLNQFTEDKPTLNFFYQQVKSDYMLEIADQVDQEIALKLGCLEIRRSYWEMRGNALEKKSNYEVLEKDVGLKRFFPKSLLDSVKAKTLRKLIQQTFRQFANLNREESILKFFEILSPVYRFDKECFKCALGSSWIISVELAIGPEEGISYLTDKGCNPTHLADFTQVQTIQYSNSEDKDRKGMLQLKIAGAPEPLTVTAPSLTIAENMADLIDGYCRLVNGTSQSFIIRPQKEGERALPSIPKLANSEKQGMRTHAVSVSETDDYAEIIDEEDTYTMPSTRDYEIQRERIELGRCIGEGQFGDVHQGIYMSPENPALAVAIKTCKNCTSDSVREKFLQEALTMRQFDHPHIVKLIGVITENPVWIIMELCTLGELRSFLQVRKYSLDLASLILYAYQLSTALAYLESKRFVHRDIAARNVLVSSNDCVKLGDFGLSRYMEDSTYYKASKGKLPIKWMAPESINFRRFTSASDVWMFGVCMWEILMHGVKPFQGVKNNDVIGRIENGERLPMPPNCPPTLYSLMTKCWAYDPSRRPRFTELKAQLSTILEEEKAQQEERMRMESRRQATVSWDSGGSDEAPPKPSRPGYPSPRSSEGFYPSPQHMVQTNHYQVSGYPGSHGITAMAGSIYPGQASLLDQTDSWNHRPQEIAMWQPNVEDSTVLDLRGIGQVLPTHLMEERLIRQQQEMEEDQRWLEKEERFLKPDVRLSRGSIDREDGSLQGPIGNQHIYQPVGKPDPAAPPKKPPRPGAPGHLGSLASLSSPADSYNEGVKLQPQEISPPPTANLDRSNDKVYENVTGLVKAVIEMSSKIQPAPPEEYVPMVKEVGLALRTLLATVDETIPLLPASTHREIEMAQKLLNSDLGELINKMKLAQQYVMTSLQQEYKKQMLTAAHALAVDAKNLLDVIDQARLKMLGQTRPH

[4] = biological target: Mitogen-activated protein kinase 14 (Homo sapiens, UniProt Q16539); assay: Inhibitory concentration against p38 cytoplasmic sequence; Reported as mean (variability <15%)
[5] = biological target: Hepatocyte growth factor receptor (Homo sapiens, UniProt P08581); assay: Inhibitory concentration against Met cytoplasmic sequence; Reported as mean (variability <15%)
[6] = biological target: Insulin-like growth factor 1 receptor (Homo sapiens, UniProt P08069); assay: Inhibitory concentration against IGF-1R cytoplasmic sequence; Reported as mean (variability <15%)
Sequence of Insulin-like growth factor 1 receptor (P08069 31-736 limits assumed): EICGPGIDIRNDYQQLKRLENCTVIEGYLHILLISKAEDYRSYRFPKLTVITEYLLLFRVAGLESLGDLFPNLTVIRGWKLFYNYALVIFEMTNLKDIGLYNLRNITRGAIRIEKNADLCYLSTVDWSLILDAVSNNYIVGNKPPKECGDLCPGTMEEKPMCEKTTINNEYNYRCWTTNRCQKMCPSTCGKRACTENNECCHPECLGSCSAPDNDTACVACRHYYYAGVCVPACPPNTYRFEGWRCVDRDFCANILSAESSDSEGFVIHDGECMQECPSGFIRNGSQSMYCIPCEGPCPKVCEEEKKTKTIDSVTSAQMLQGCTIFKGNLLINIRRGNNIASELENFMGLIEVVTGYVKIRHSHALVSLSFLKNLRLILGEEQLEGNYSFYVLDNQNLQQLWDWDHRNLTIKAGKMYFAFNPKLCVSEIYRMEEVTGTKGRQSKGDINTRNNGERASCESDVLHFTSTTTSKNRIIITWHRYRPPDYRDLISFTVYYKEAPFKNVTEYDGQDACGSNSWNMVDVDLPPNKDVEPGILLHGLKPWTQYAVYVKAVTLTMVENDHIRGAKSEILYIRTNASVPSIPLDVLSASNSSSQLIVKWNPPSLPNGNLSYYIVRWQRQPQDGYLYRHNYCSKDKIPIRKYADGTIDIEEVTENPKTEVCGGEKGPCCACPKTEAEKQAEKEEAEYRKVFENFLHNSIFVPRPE
Sequence of Insulin-like growth factor 1 receptor (P08069 741-1367 limits assumed): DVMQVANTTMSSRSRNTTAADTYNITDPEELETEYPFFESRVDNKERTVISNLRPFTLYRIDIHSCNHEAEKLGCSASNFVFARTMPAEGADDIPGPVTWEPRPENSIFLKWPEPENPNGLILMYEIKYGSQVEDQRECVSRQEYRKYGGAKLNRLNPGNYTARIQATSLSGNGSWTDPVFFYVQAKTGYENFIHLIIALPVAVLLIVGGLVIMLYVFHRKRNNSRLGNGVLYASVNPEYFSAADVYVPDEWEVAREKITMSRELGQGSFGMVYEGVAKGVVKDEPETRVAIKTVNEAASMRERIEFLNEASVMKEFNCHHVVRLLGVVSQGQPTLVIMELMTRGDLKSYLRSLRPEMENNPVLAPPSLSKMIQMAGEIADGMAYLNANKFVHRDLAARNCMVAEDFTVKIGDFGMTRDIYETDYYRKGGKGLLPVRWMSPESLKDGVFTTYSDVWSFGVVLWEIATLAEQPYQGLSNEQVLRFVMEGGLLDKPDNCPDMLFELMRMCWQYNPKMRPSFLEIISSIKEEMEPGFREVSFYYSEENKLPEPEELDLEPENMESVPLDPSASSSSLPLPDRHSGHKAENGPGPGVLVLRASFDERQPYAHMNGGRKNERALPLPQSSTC

Sequence of Receptor tyrosine-protein kinase erbB-2 (P04626 whole entry): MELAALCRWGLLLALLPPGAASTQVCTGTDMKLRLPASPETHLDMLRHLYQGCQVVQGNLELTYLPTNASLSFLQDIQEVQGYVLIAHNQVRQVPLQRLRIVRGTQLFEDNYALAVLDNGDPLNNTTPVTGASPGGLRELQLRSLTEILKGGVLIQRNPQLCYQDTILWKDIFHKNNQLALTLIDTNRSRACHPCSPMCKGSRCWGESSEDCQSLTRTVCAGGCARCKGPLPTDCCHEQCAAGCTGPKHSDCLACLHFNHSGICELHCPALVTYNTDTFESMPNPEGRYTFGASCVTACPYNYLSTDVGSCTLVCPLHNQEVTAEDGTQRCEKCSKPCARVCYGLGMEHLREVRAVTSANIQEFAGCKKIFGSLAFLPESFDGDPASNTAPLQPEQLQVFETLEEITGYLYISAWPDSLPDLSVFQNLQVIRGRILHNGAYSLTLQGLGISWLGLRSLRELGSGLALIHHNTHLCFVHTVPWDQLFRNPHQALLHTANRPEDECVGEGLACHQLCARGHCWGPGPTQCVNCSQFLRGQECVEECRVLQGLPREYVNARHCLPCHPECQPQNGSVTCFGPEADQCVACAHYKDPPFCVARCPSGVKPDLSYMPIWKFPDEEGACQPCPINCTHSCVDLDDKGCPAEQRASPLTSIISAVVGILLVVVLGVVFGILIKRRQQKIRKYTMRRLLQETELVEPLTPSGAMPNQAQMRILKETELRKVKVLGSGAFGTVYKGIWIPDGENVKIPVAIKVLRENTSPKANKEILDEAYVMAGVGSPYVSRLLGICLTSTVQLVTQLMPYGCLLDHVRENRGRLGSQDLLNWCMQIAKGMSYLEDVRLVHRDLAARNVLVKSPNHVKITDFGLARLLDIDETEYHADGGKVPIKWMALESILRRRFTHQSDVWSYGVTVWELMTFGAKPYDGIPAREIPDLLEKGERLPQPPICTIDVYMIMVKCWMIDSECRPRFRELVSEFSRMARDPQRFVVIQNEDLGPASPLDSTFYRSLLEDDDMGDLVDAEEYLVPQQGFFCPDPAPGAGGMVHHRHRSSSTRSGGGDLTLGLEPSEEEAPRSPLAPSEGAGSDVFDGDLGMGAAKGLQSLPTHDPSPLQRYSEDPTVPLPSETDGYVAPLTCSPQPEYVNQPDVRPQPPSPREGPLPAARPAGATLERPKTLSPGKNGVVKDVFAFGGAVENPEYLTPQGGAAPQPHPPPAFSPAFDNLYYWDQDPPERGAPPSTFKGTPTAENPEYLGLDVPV

IC50 [1] | IC50 [2] | Compound | further results
0.24 µM | 0.17 µM | CCc1c(C(=O)OCCCn2ccnc2)cn2ncnc(Nc3ccc4c(cnn4Cc4ccccc4)c3)c12 | 
2.4 µM | 1.1 µM | CCc1c(CC(N)=O)cn2ncnc(Nc3ccc4c(cnn4Cc4ccccc4)c3)c12 | 
0.11 µM | 0.12 µM | CCc1c(C(N)=O)cn2ncnc(Nc3ccc4c(cnn4Cc4ccccc4)c3)c12 | 
2.8 µM | 0.09 µM | CCOC(=O)c1cn2ncnc(Nc3ccc(F)c(Cl)c3)c2c1CC | 
1.4 µM | 0.95 µM | CCOCc1cn2ncnc(Nc3ccc4c(cnn4Cc4ccccc4)c3)c2c1CC | 
0.18 µM | 0.12 µM | CCOC(=O)c1cn2ncnc(Nc3ccc4c(cnn4Cc4ccccc4)c3)c2c1CC | 
> 25 µM | > 25 µM | CCOC(=O)c1cn2ncnc(Nc3ccc4c(cnn4Cc4ccccc4)c3)c2c1Cc1ccccc1 | 
0.13 µM | 0.07 µM | CCc1c(C(=O)NC)cn2ncnc(Nc3ccc4c(cnn4Cc4ccccc4)c3)c12 | 
0.21 µM | 0.2 µM | CCOC(=O)c1cn2ncnc(Nc3ccc4c(cnn4Cc4ccccc4)c3)c2c1C(C)C | 
9.7 µM | 7.4 µM | CCNCc1cn2ncnc(Nc3ccc4c(cnn4Cc4ccccc4)c3)c2c1CC | 
0.5 µM | 0.2 µM | CCc1c(C(=O)N(C)C)cn2ncnc(Nc3ccc4c(cnn4Cc4ccccc4)c3)c12 | 
0.17 µM | 0.21 µM | CCc1c(NC(=O)OCc2ccccc2)cn2ncnc(Nc3ccc4c(cnn4Cc4ccccc4)c3)c12 | 
0.68 µM | 1.6 µM | CCc1c(CC(=O)O)cn2ncnc(Nc3ccc4c(cnn4Cc4ccccc4)c3)c12 | 
0.73 µM | 0.49 µM | CCc1c(CO)cn2ncnc(Nc3ccc4c(cnn4Cc4ccccc4)c3)c12 | 
0.39 µM | 0.12 µM | CCOC(=O)c1cc2c(Nc3ccc4c(cnn4Cc4ccccc4)c3)ncnn2c1 | 
1.2 µM | 0.95 µM | CCCc1c(C(=O)OCC)cn2ncnc(Nc3ccc4c(cnn4Cc4ccccc4)c3)c12 | 

Compound | IC50 [1] | IC50 [2] | further results
CCc1c(C(=O)NCCCn2ccnc2)cn2ncnc(Nc3ccc4c(cnn4Cc4ccccc4)c3)c12 | 0.03 µM | 0.04 µM | 
CCOC(=O)c1cn2ncnc(Nc3ccc(Oc4ccccc4)cc3)c2c1CC | 0.82 µM | 0.61 µM | 
CCc1c(C(=O)O)cn2ncnc(Nc3ccc4c(cnn4Cc4ccccc4)c3)c12 | 0.04 µM | 0.02 µM | 
CCOC(=O)c1cn2ncnc(Nc3cccc(Br)c3)c2c1CC | 3 µM | 0.06 µM | 
CCOC(=O)c1cn2ncnc(NCc3ccccc3)c2c1CC | 7.2 µM | 0.2 µM | 
CCOC(=O)c1cn2ncnc(Nc3ccc4[nH]ncc4c3)c2c1CC | 3.3 µM |  | 
CCc1c(NC(=O)OCCn2ccnc2)cn2ncnc(Nc3ccc4c(cnn4Cc4ccccc4)c3)c12 | 0.04 µM | 0.04 µM | IC50 [3]: > 25 µM; IC50 (Focal adhesion kinase 1): > 25 µM; IC50 [4]: > 25 µM; IC50 [5]: > 10 µM; IC50 [6]: > 25 µM
